± gives the expanded uncertainty stated by the source.
Key:
[1] = Crystal; DTA
[2] = Molar enthalpy of transition or fusion; conditions: Crystal; DSC

## CCCCCCCCCCCCCCCCCC(=O)OCC(COC(=O)CCCCCCCCCCCCCCCCC)OC(=O)CCCCCCCCCCCCCCCCC [glycerol trioctadecanoate]
[1]
  Normal melting temperature: 72.89 ± 0.53 °C
[2]
  Molar enthalpy of transition or fusion: 27.7 ± 8.6 kcal/mol
